The test concerns the target T1, N-terminal 6His-tagged ROCK2 catalytic domain 11-552 (Homo sapiens, UniProt O75116).
T1 construct: N-terminal 6His-tagged ROCK2 catalytic domain 11-552; 6His (N); purchased Dundee University, UK; host or cells: baculovirus expression system
Put plainly: ROCK2 binding activity: ROCK2 inhibition, ADP-Glo Kinase Assay. Type of test: biochemical. The settings on record: 1.25 nM ROCK2, 100 μM long S6 peptide, 20 μM ATP; 1 hour pre-incubation; read-out: ADP-Glo kinase activity assay ROCK2 Category. As to the method:
Assay for ROCK2 inhibition was performed using the protein construct N-terminal 6His-tagged ROCK2 catalytic domain 11-552 (Dundee University, UK). Protein was purified from a baculovirus expression system. Long S6 peptide ([…]) was used as substrate. Kinase reactions were carried out in 15 μl volume in a 96-well plate (black, half area) using 1.25 nM constitutively active ROCK2 kinase, 100 μM long S6 peptide, 20 μM ATP and test compound in DMSO (or DMSO only for controls). The final concentration of DMSO was 1%. Assay buffer was 50 mM HEPES pH 7.5 supplemented with 0.2 mM EDTA, 10 mM magnesium acetate, 0.01% Tween-20, 1 mM DTT and 0.01% BSA. Test compounds were pre-incubated with ROCK2 kinase for 1 hour before addition of ATP and long S6 peptide. After incubation for a further 1 hour, the amount of ADP produced was measured using ADP-Glo Kinase Assay (Promega) as per manufacturer's instructions. The luminescence was measured on a PHERAstar FS (BMG Labtech). The concentration of test compound required to inhibit ADP production by 50% (the IC50) was calculated using a four-parameter logistic function with software by Dotmatics.
The category “+” refers to compounds with a ROCK2 IC50 value of >10 μM. The category “++” refers to compounds with a ROCK2 IC50 value of 10 to 3 μM. The category “+++” refers to compounds with a ROCK2 IC50 value of 3 to 0.3 μM. The category “++++” refers to compounds with a ROCK2 IC50 value of <0.3 μM.

Each structure is given as a SMILES string. pIC50: −log10 of the molar value. Values joined by “and” are separate entries in the source; they are usually repeats but may differ in a detail not shown here. Equal values may be shown once.

Our source for the IC50 values is patent US11497751B2, “Modulators of Rho-associated protein kinase” (Redx Pharma PLC, priority 2018, dated 2022).

T1 sequence (O75116 11-552): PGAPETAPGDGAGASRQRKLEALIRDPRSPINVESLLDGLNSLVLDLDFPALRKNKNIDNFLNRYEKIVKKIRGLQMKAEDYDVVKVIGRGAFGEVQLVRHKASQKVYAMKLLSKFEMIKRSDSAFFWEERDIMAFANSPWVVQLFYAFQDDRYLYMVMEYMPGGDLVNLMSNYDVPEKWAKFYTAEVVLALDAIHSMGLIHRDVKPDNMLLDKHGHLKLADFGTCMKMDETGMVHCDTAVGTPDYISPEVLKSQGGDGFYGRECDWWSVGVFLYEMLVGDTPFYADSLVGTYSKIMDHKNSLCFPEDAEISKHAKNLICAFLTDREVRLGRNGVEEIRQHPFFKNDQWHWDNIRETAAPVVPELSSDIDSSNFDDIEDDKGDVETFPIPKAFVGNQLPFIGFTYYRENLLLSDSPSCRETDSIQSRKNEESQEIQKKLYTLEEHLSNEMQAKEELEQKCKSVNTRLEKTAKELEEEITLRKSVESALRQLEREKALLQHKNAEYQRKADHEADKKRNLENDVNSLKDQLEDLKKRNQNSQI

As to `COc1cc(-c2nc(Nc3ccc4[nH]ncc4c3Cl)n(-c3ccncc3)n2)ccc1OCC(=O)NC(C)C` [Example 152], the pIC50 is above 6.52.
With `COc1cc(-c2nc(Nc3ccc4[nH]ncc4c3Cl)n(-c3ccccn3)n2)ccc1C(=O)NCC(F)(F)F` [Example 153], the pIC50 is above 6.52.
Next, `O=C(COc1ccc(-c2nnc(Nc3ccc4[nH]ncc4c3)[nH]2)cc1)N1CCOCC1` [Example 154, 2-[4-[5-(1H-Indazol-5-ylamino)-4H-1,2,4-triazol-3-yl]phenoxy]-1-morpholinoethanone]: 5.52 to 6.52.
Turning to `COCCNC(=O)COc1ccc(-c2nnc(Nc3ccc4[nH]ncc4c3)[nH]2)cc1` [Example 155], the pIC50 was 5.52 to 6.52.
Next, `O=C(COc1ccc(-c2nnc(Nc3ccc4[nH]ncc4c3)[nH]2)cc1)NC1CCNC1` (stereo not drawn) [Example 156]: above 6.52.
Next, `O=C(COc1ccc(-c2nnc(Nc3ccc4[nH]ncc4c3)[nH]2)cc1)N[C@@H]1CCNC1` [Example 157]: above 6.52.
To `O=C(COc1ccc(-c2nnc(Nc3ccc4[nH]ncc4c3)[nH]2)cc1)N[C@H]1CCNC1` [Example 158] belongs above 6.52; to `O=C(COc1ccc(-c2nnc(Nc3ccc4[nH]ncc4c3)[nH]2)cc1)NC1CCOC1` (stereo not drawn) [Example 159], 5.52 to 6.52.
In the case of `O=C(COc1ccc(-c2nnc(Nc3ccc4[nH]ncc4c3)[nH]2)cc1)NC1CCCC1` [Example 160], the pIC50 is above 6.52.
As to `O=C(COc1ccc(-c2nnc(Nc3ccc4[nH]ncc4c3)[nH]2)cc1)NC1CCC1` [Example 161], the pIC50 is above 6.52.
For the compound `O=C(COc1ccc(-c2nnc(Nc3ccc4[nH]ncc4c3)[nH]2)cc1)NC1CC1` [Example 162], the pIC50 was above 6.52.
Next, `CN1CCC(NC(=O)COc2ccc(-c3nnc(Nc4ccc5[nH]ncc5c4)[nH]3)cc2)C1` (stereo not drawn) [Example 163]: 5.52 to 6.52; `O=C(COc1ccc(-c2nnc(Nc3ccc4[nH]ncc4c3)[nH]2)cc1)NC1COC1` [Example 164]: above 6.52; `COc1cc(-c2nnc(Nc3ccc4[nH]ncc4c3)[nH]2)ccc1OCC(=O)NC1CCC1` [Example 165]: above 6.52.
To `CC(C)NC(=O)c1ccc(-c2nc(Nc3ccc4[nH]ncc4c3Cl)n(C)n2)cc1` [Example 166, 4-[5-[(4-chloro-1H-indazol-5-yl)amino]-1-methyl-1,2,4-triazol-3-yl]-N-isopropyl-benzamide] belongs above 6.52; to `COc1cc(-c2nc(Nc3ccc4[nH]ncc4c3)n(C)n2)ccc1OCC(=O)NC(C)C` [Example 167], above 6.52; to `CCNC(=O)c1ccc(-c2nc(Nc3ccc4[nH]ncc4c3)n(C)n2)cc1OC` [Example 168], above 6.52.
On to `COc1cc(-c2nc(Nc3ccc4[nH]ncc4c3)n(C)n2)ccc1C(=O)NC(C)C` [Example 169], for which the pIC50 was above 6.52.
Next, `COc1cc(-c2nc(Nc3ccc4[nH]ncc4c3)n(C)n2)ccc1C(=O)NC(C)(C)C` [Example 170]: above 6.52.
For `Cn1nc(-c2ccc(C(=O)NCC(F)(F)F)cc2)nc1Nc1ccc2[nH]ncc2c1Cl` [Example 171], the pIC50 was above 6.52.
For `COc1cc(-c2nc(Nc3ccc4[nH]ncc4c3Cl)n(C)n2)ccc1C(=O)N1CCOCC1` [Example 172], the pIC50 is 5.52 to 6.52.
Turning to `COc1cc(-c2nc(Nc3ccc4[nH]ncc4c3Cl)n(C)n2)ccc1C(=O)N1CC(CO)(CO)C1` [Example 173], the pIC50 was 5.00 to 5.52.
On to `CNC(=O)c1ccc(-c2nc(Nc3ccc4[nH]ncc4c3Cl)n(C)n2)cc1OC` [Example 174], for which the pIC50 was above 6.52.
With `COc1cc(-c2nc(Nc3ccc4[nH]ncc4c3Cl)n(C)n2)ccc1C(=O)NC(C)(C)C` [Example 175], the pIC50 was above 6.52.
Turning to `Cn1nc(-c2ccc(C(=O)NC3CCC3)cc2)nc1Nc1ccc2[nH]ncc2c1Cl` [Example 176], the pIC50 is above 6.52.
To `Cn1nc(-c2ccc(C(=O)NC3CC3)cc2)nc1Nc1ccc2[nH]ncc2c1Cl` [Example 177] belongs above 6.52; to `COc1cc(-c2nc(Nc3ccc4[nH]ncc4c3C)n(C)n2)ccc1C(=O)NCC(F)(F)F` [Example 178], above 6.52; to `COc1cc(-c2nc(Nc3ccc4[nH]ncc4c3C)n(C)n2)ccc1C(=O)NC(C)C` [Example 179], above 6.52.
For `CCNC(=O)c1ccc(-c2nc(Nc3ccc4[nH]ncc4c3C)n(C)n2)cc1OC` [Example 180], the pIC50 is above 6.52.
Next, `COc1cc(-c2nc(Nc3ccc4[nH]ncc4c3C)n(C)n2)ccc1C(=O)NC(C)(C)C` [Example 181]: above 6.52; `COc1cc(-c2nc(Nc3ccc4[nH]ncc4c3C)n(C)n2)ccc1C(=O)NC1CC1` [Example 182]: above 6.52; `COc1cc(-c2nc(Nc3ccc4[nH]ncc4c3F)n(C)n2)ccc1C(=O)NC(C)C` [Example 183]: above 6.52.
Next, `COc1cc(-c2nc(Nc3ccc4[nH]ncc4c3F)n(C)n2)ccc1C(=O)NCC(F)(F)F` [Example 184]: 5.52 to 6.52 and > 6.52; `COc1cc(-c2nc(Nc3ccc4[nH]ncc4c3Cl)n(C(C)C)n2)ccc1C(=O)NC(C)C` [Example 191]: above 6.52.
Next, `COc1cc(-c2nc(Nc3ccc4[nH]ncc4c3Cl)n(C(C)C)n2)ccc1C(=O)NCC(F)(F)F` [Example 192]: above 6.52; `COc1cc(-c2nc(Nc3ccc4[nH]ncc4c3Cl)n(C)n2)ccc1C(=O)NC(C)C` [Example 193, 4-[5-[(4-chloro-1H-indazol-5-yl)amino]-1-methyl-1,2,4-triazol-3-yl]-N-isopropyl-2-methoxy-benzamide]: above 6.52.
As for `COc1cc(-c2nc(Nc3ccc4[nH]ncc4c3Cl)n(C)n2)ccc1C(=O)NC1CC1` [Example 195], the pIC50 is above 6.52.
With `COc1cc(-c2nc(Nc3ccc4[nH]ncc4c3Cl)n(C)n2)ccc1C(=O)NC1CCOCC1` [Example 196], the pIC50 was above 6.52.
Regarding `COc1cc(-c2nc(Nc3ccc4[nH]ncc4c3Cl)n(C)n2)ccc1C(=O)N1CCCC1` [Example 197], the pIC50 was 5.52 to 6.52.
In the case of `COc1cc(-c2nc(Nc3ccc4[nH]ncc4c3Cl)n(C)n2)ccc1C(=O)NC1(CO)CC1` [Example 198], the pIC50 is above 6.52.
As for `COc1cc(-c2nc(Nc3ccc4[nH]ncc4c3Cl)n(C)n2)ccc1C(=O)NC#N` [Example 199], the pIC50 is 5.52 to 6.52.
For the compound `COc1cc(-c2nc(Nc3ccc4[nH]ncc4c3Cl)n(C)n2)ccc1C(=O)NC1CCS(=O)(=O)C1` (stereo not drawn) [Example 200], the pIC50 is above 6.52.
As for `COc1cc(-c2nc(Nc3ccc4[nH]ncc4c3Cl)n(C)n2)ccc1C(=O)NCC(F)(F)F` [Example 201], the pIC50 was above 6.52.
`COc1cc(-c2nc(Nc3ccc4[nH]ncc4c3Cl)n(C)n2)ccc1C(=O)NC1CCN(C)C1` (stereo not drawn) [Example 202]: the pIC50 is above 6.52.
To `COc1cc(-c2nc(Nc3ccc4[nH]ncc4c3Cl)n(C)n2)ccc1C(N)=O` [Example 203] belongs above 6.52; to `COc1cc(-c2nc(Nc3ccc4[nH]ncc4c3Cl)n(C)n2)ccc1OCC(=O)NC(C)(C)C` [Example 204, N-tert-butyl-2-[4-[5-[(4-chloro-1H-indazol-5-yl)amino]-1-methyl-1,2,4-triazol-3-yl]-2-methoxy-phenoxy]acetamide], above 6.52.
Regarding `COc1cc(-c2nc(Nc3ccc4[nH]ncc4c3Cl)n(C)n2)ccc1OCC(=O)NC(C)(C)CO` [Example 205], the pIC50 was above 6.52.
On to `COc1cc(-c2nc(Nc3ccc4[nH]ncc4c3Cl)n(C)n2)ccc1OCC(=O)NCC(C)O` (stereo not drawn) [Example 206], for which the pIC50 was above 6.52.
To `COc1cc(-c2nc(Nc3ccc4[nH]ncc4c3Cl)n(C)n2)ccc1OCC(=O)NCC(C)(C)O` [Example 207] belongs above 6.52; to `COc1cc(-c2nc(Nc3ccc4[nH]ncc4c3Cl)n(C)n2)ccc1OCC(=O)NC(C)CO` (stereo not drawn) [Example 208], above 6.52; to `COc1cc(-c2nc(Nc3ccc4[nH]ncc4c3Cl)n(C)n2)ccc1OCC(=O)NCC1(O)CC1` [Example 209], above 6.52.
`COc1cc(-c2nc(Nc3ccc4[nH]ncc4c3Cl)n(C)n2)ccc1OCC(=O)NC(C)C(F)(F)F` (stereo not drawn) [Example 210]: the pIC50 was above 6.52.
Take `COc1cc(-c2nc(Nc3ccc4[nH]ncc4c3Cl)n(C)n2)ccc1OCC(=O)NC1(CO)CC1` [Example 211]: the pIC50 is above 6.52.
For the compound `COc1cc(-c2nc(Nc3ccc4[nH]ncc4c3Cl)n(C)n2)ccc1OCC(=O)NC1CCC(O)CC1` (stereo not drawn) [Example 212], the pIC50 is above 6.52.
With `COc1cc(-c2nc(Nc3ccc4[nH]ncc4c3Cl)n(C)n2)ccc1OCC(=O)N[C@@H]1CCCC[C@H]1O` [Example 213], the pIC50 is above 6.52.
Next, `COc1cc(-c2nc(Nc3ccc4[nH]ncc4c3Cl)n(C)n2)ccc1OCC(=O)NC1CC(O)C1` (stereo not drawn) [Example 214]: above 6.52.
To `COc1cc(-c2nc(Nc3ccc4[nH]ncc4c3Cl)n(C)n2)ccc1OCC(=O)NC(C)c1ccccn1` (stereo not drawn) [Example 215] belongs above 6.52.
